Data set [1] concerns the target T1, Tyrosine-protein kinase JAK1 (Homo sapiens, UniProt P23458).
Data set [2] deals with T1, Tyrosine-protein kinase JAK1. The source holds these as a separate data set.
Description: Inhibition of JAK1 in human STAT6-bla-RA1 cells assessed as reduction in IL4-induced STAT6-signalling pre-incubated for 1 hrs before human recombinant IL4 addition and further incubated for 4 hrs fluorescence based assay
In data set [3] the target is T2, Tyrosine-protein kinase JAK2 (Homo sapiens, UniProt O60674).
In data set [4] the target is T2, Tyrosine-protein kinase JAK2. This is another data set of the same source.
Description: Inhibition of JAK2 in human STAT5-irf1-bla TF1 cells assessed as reduction in EPO-induced STAT5-signalling pre-incubated for 1 hrs before EPO addition and further incubated for 4 hrs fluorescence based assay
Data set [5] is described as follows: physchem. The note with it: PBS buffer, pH 7.4.
Description: Aqueous solubility in PBS buffer at pH 7.4 by HPLC analysis
In data set [6] the target is T3, Tyrosine-protein kinase JAK3 (Homo sapiens, UniProt P52333).
T3 sequence (P52333 whole entry): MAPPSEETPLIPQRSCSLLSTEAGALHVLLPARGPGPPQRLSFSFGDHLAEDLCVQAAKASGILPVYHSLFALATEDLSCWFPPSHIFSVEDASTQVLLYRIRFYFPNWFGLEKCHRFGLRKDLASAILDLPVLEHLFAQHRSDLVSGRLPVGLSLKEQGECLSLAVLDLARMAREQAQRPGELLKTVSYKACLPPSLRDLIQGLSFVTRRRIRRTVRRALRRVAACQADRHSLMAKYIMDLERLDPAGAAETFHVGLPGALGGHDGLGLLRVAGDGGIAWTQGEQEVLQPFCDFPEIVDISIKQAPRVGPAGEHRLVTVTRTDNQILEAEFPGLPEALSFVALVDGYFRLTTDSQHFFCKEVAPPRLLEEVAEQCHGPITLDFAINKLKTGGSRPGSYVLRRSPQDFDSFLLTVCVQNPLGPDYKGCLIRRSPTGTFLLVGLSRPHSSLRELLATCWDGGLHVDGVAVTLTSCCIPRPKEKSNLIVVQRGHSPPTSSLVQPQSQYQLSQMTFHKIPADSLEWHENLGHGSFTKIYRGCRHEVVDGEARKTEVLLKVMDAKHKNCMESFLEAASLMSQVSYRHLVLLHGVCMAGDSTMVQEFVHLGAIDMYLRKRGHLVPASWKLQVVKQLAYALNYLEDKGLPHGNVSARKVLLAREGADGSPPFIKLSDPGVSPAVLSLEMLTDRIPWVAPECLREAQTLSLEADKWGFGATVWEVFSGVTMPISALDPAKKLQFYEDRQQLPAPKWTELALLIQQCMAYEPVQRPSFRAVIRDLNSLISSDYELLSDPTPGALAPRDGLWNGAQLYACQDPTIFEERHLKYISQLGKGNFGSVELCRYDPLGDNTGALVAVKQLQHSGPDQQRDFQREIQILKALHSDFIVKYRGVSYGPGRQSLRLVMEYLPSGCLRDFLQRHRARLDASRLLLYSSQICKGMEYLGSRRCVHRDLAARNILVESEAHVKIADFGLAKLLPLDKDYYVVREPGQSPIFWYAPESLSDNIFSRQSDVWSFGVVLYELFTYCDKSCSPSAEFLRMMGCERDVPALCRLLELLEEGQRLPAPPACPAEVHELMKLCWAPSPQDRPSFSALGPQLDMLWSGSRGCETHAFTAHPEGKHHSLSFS

Data set [7] is described as follows: physchem. The note with it: octanol/water.
Description: Lipophilicity, logD of the compound by shake flask assay
Data set [8] has as its target Non-receptor tyrosine-protein kinase TYK2 (Homo sapiens, UniProt P29597).

≈ marks a conversion by molar mass, not a printed value.

In general, IC50 refers to the point on the concentration scale where inhibition reaches its midpoint. Higher therefore signals lower potency. By solubility is commonly meant the concentration that dissolves in the medium under given conditions. The low end stands for a poorly soluble substance, the high end for a readily soluble substance. The logD is the decadic logarithm of the distribution of all forms, ionised or not, between an organic phase and buffer at a given pH.

Chain of Non-receptor tyrosine-protein kinase TYK2 (P29597 whole entry): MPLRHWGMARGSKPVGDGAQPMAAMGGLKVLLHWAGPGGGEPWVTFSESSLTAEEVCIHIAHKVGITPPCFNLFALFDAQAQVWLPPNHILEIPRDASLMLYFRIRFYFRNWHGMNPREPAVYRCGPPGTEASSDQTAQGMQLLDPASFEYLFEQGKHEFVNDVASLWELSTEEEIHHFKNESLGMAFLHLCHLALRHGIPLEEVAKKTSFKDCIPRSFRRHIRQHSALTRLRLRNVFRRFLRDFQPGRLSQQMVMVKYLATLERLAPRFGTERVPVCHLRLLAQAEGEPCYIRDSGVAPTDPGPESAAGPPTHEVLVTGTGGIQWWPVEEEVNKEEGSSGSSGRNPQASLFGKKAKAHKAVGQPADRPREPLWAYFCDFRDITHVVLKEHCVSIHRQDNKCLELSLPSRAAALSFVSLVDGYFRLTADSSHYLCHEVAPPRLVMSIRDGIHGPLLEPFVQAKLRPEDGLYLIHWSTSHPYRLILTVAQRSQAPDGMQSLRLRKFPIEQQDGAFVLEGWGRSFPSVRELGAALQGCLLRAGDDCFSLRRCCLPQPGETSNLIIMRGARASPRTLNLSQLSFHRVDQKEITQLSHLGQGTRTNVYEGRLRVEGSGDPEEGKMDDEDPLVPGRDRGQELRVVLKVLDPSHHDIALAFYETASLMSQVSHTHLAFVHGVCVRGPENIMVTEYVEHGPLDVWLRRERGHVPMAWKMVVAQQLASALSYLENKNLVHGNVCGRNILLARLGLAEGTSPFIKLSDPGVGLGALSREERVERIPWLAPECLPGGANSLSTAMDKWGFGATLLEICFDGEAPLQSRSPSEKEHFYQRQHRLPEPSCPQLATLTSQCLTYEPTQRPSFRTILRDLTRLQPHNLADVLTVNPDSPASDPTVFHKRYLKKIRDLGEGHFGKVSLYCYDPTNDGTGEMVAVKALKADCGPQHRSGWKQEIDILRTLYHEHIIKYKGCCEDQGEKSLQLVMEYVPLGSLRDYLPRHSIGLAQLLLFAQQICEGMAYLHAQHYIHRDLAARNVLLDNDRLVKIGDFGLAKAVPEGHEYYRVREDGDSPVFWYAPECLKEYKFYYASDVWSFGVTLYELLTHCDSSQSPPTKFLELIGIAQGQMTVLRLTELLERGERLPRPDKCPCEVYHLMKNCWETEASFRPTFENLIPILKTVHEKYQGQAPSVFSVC
T1 sequence (P23458 whole entry): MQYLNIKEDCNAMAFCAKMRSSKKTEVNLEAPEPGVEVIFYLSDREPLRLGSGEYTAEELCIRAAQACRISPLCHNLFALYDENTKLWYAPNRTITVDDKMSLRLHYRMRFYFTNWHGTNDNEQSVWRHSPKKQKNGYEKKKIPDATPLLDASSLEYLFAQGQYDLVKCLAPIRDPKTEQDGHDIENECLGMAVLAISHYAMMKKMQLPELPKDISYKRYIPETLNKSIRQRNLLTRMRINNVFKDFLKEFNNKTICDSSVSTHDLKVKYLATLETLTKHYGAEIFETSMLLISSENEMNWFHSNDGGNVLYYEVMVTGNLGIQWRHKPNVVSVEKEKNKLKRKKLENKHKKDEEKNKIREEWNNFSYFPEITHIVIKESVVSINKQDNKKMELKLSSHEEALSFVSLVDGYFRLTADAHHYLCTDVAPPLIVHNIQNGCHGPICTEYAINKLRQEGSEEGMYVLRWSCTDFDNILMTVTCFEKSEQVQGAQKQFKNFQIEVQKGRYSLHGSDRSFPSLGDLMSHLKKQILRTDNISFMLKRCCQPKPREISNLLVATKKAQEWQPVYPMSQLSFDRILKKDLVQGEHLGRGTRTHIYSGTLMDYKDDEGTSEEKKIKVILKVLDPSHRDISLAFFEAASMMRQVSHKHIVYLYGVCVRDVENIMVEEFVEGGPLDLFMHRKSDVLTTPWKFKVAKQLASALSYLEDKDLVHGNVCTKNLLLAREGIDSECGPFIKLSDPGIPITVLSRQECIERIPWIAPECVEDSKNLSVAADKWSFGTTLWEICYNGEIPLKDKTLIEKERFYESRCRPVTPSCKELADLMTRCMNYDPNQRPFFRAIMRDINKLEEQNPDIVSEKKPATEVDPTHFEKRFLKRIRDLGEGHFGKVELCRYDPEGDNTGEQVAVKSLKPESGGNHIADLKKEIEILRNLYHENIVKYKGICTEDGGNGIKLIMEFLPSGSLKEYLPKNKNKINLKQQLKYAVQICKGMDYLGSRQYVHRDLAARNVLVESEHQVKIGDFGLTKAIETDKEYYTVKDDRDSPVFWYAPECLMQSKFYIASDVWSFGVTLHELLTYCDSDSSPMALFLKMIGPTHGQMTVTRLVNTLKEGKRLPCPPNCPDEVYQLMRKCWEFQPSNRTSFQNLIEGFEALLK
T2 sequence (O60674 whole entry): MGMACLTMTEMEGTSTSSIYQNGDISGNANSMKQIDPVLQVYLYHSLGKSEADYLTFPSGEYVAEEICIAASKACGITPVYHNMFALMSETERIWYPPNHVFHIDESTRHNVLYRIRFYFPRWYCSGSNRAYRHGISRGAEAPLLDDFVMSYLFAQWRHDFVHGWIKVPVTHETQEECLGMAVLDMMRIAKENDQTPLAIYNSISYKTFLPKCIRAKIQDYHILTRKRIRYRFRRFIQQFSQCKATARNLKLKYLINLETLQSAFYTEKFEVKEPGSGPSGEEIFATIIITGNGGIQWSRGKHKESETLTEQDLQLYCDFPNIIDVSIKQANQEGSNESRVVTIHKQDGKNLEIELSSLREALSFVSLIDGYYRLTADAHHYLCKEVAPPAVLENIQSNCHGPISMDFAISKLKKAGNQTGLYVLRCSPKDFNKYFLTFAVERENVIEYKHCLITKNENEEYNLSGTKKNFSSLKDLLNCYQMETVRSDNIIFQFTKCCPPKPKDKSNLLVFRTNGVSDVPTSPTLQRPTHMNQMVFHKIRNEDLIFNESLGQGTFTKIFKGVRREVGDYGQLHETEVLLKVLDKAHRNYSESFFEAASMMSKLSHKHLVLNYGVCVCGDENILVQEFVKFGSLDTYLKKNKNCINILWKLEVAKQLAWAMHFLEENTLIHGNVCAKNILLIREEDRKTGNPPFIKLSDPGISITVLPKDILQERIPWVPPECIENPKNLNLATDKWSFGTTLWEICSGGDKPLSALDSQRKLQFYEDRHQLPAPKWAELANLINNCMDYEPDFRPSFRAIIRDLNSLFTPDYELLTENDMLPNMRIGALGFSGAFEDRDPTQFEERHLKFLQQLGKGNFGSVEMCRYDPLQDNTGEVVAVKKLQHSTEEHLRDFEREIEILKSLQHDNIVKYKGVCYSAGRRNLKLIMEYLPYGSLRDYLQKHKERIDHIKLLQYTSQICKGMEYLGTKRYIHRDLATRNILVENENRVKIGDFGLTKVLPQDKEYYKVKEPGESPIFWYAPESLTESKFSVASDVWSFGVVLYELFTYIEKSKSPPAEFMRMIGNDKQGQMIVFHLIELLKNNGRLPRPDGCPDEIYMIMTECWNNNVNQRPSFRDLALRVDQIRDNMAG

The molecule `Cc1cc(=O)[nH]c2nn(C)c(C)c12` came in with a 50% inhibitory concentration (IC50) in data set [1] of more than 500000 nM.
Regarding `Cc1[nH]nc2[nH]c(=O)cc([C@@H]3C[C@H]4CC[C@@H]3C4)c12` (racemic), the IC50 in data set [2] is 1000 nM; in data set [3], 380 nM; in data set [4], more than 40000 nM; in data set [6] it was 180 nM; in data set [1], 44 nM; in data set [8], 150 nM. The molecule also showed a solubility in the data set “physchem [5]” of 33 µM (≈ 8.03 µg/mL). In addition, in the data set “physchem [7]”, the pH-dependent lipophilicity (logD) turned out to be 2.7.
For the molecule `Cc1[nH]nc2[nH]c(=O)cc([C@H]3CC[C@H](CCC#N)CC3)c12`, the IC50 was 1200 nM in data set [2]; 160 nM in data set [3]; 13000 nM in data set [4]; 280 nM in data set [6]; 32 nM in data set [1]. In “physchem [5]”, the solubility amounted to 18 µM (≈ 5.12 µg/mL). For the same molecule, the logD in “physchem [7]” came out at 1.8.
For the molecule `Cc1[nH]nc2[nH]c(=O)cc(C3CC4CCC3CC4)c12` (racemic), the IC50 in data set [2] came to 890 nM; in data set [3] it was 330 nM; in data set [4], 9100 nM; in data set [6], 65 nM; in data set [1], 54 nM; in data set [8], 220 nM. In the data set “physchem [5]”, this molecule came in with a solubility of 8 µM (≈ 2.06 µg/mL). The molecule further gave a logD in the data set “physchem [7]” of 3.3.
`Cc1[nH]nc2[nH]c(=O)cc([C@H]3CC[C@H](NC(=O)[C@H]4CC4(F)F)CC3)c12`: the IC50 was more than 40000 nM in data set [2]; 1700 nM in data set [3]; more than 40000 nM in data set [4]; 2700 nM in data set [6]; 78 nM in data set [1]; 2700 nM in data set [8]. This molecule registered a solubility in the data set “physchem [5]” of 29 µM (≈ 10.2 µg/mL). Besides, the logD in “physchem [7]” amounted to 1.3.
`Cc1cc(=O)[nH]c2n[nH]c(C)c12`: the IC50 in data set [1] stood at 30000 nM.
Take `Cc1[nH]nc2[nH]c(=O)cc(-c3ccccc3)c12`: the IC50 in data set [2] is more than 50000 nM; in data set [3], 4200 nM; in data set [6] it was 2600 nM; in data set [1], 2200 nM; in data set [8], 3900 nM. The solubility in “physchem [5]” is more than 90 µM. For the same molecule, the logD in “physchem [7]” is 2.2.
On to `Cc1[nH]nc2[nH]c(=O)cc([C@H]3CC[C@H](O)CC3)c12`, for which the IC50 was 20000 nM in data set [2], 1700 nM in data set [6], 490 nM in data set [1] and 4200 nM in data set [8]. The molecule also displayed a solubility in the data set “physchem [5]” of more than 85 µM. Also, the logD in “physchem [7]” is 0.8.
Regarding `Cc1[nH]nc2[nH]c(=O)cc([C@H]3CC[C@H](NC(=O)C4CCCC4)CC3)c12`, the IC50 is 9100 nM in data set [2]; 1600 nM in data set [3]; more than 30000 nM in data set [4]; 4800 nM in data set [6]; 110 nM in data set [1]; 6800 nM in data set [8].
`Cc1[nH]nc2[nH]c(=O)cc([C@H]3CC[C@H](NS(=O)(=O)CC4CCC4)CC3)c12`: the IC50 in data set [2] was 3200 nM; in data set [3], 570 nM; in data set [4], more than 10000 nM; in data set [6], 1700 nM; in data set [1] it was 40 nM.
With `Cc1[nH]nc2[nH]c(=O)c(CCO)c(C3CCCCC3)c12`, the IC50 was 8500 nM in data set [2]; 3900 nM in data set [3]; more than 40000 nM in data set [4]; 990 nM in data set [6]; 490 nM in data set [1]; 3400 nM in data set [8]. The molecule also returned a solubility in the data set “physchem [5]” of 11 µM (≈ 3.03 µg/mL). The same molecule showed a logD in the data set “physchem [7]” of 2.6.
In the case of `Cc1cc(O)nc2c1c(C)nn2C`, the IC50 in data set [1] is more than 900000 nM.
Turning to `Cc1[nH]nc2[nH]c(=O)cc(C3CCCCC3)c12`, the IC50 in data set [2] is 3700 nM; in data set [3], 1300 nM; in data set [4] it was more than 40000 nM; in data set [6], 550 nM; in data set [1], 130 nM; in data set [8] it was 670 nM. This molecule came in with a solubility in “physchem [5]” of 4 µM (≈ 0.925 µg/mL). Moreover, in “physchem [7]”, the logD was 2.8.
With `Cc1[nH]nc2[nH]c(=O)cc([C@H]3CC[C@H](CC#N)CC3)c12`, the IC50 in data set [2] is 1200 nM; in data set [3], 360 nM; in data set [4], more than 40000 nM; in data set [6] it was 270 nM; in data set [1], 40 nM; in data set [8] it was 130 nM. In the data set “physchem [5]”, this molecule had a solubility of 59 µM (≈ 15.9 µg/mL). In the data set “physchem [7]”, the logD came out at 1.5.
Turning to `Cc1[nH]nc2[nH]c(=O)cc([C@H]3CC[C@H](C#N)CC3)c12`, the figures for the concentration for half-maximal inhibition (IC50) in data set [6] and in data set [1] were 11000 nM and 730 nM, respectively.
As for `Cc1[nH]nc2[nH]c(=O)cc([C@@H]3C[C@@H]4C[C@H]3C[C@H]4CC#N)c12`, the 50% inhibitory concentration (IC50) in data set [3] stood at 93 nM; in data set [4], 15000 nM; in data set [6], 420 nM; in data set [8] it was 180 nM.
On to `Cc1[nH]nc2[nH]c(=O)cc([C@H]3C[C@H]4CC[C@@H]3C4)c12` (racemic), for which the IC50 in data set [2] stood at 850 nM; in data set [3], 430 nM; in data set [4], 22000 nM; in data set [6], 240 nM; in data set [1], 46 nM; in data set [8], 430 nM. This molecule also gave a solubility in the data set “physchem [5]” of 64 µM (≈ 15.6 µg/mL). Moreover, the logD in the data set “physchem [7]” was determined as 2.8.
For `Cc1[nH]nc2[nH]c(=O)cc([C@H]3CC[C@H](NC(=O)C4CC4)CC3)c12`, the IC50 in data set [2] is more than 14000 nM; in data set [3] it was 2100 nM; in data set [4] it was more than 14000 nM; in data set [6] it was 7000 nM; in data set [1], 220 nM; in data set [8], 2800 nM. This molecule also gave a solubility in “physchem [5]” of 22 µM (≈ 6.92 µg/mL). In the data set “physchem [7]”, the logD is 1.2.
`CCCS(=O)(=O)N[C@H]1C[C@@H](N(C)c2ncnc3[nH]ccc23)C1` [ABROCITINIB] returned a logD in “physchem [7]” of 2.
On to `O=c1cc(C(F)F)c2c[nH]nc2[nH]1`, for which the IC50 in data set [1] was more than 100000 nM.
For `Cc1[nH]nc2[nH]c(=O)cc([C@H]3CC[C@H](C(=O)NC4CC4)CC3)c12`, the concentration for half-maximal inhibition (IC50) was more than 40000 nM in data set [2]; 9400 nM in data set [3]; more than 40000 nM in data set [4]; 1100 nM in data set [6]; 2000 nM in data set [1]; 14000 nM in data set [8].
On to `Cc1[nH]nc2[nH]c(=O)cc([C@H]3CCCC[C@H]3C)c12` (racemic), for which the IC50 came to 1300 nM in data set [2]; 340 nM in data set [3]; 8900 nM in data set [4]; 110 nM in data set [6]; 40 nM in data set [1]; 700 nM in data set [8]. The molecule also registered a solubility in the data set “physchem [5]” of 8 µM (≈ 1.96 µg/mL). In “physchem [7]”, the logD was 3.
Turning to `Cc1[nH]nc2[nH]c(=O)cc([C@H]3CC[C@H](OC(=O)[C@@H]4CC4(F)F)CC3)c12`, the IC50 in data set [2] was 420 nM; in data set [3], 120 nM; in data set [4] it was more than 25000 nM; in data set [6], 91 nM; in data set [1], 14 nM. Also, the solubility in “physchem [5]” came out at 3 µM (≈ 1.05 µg/mL).
Take `Cc1[nH]nc2[nH]c(=O)cc([C@H]3CC[C@H](N)CC3)c12`: the IC50 in data set [2] is more than 40000 nM; in data set [3] it was 18000 nM; in data set [4] it was more than 40000 nM; in data set [6], 11000 nM; in data set [1] it was 820 nM; in data set [8], 16000 nM.
For the molecule `CCc1[nH]nc2[nH]c(=O)cc(C3CCCCC3)c12`, the IC50 in data set [2] was 2500 nM; in data set [3], 2700 nM; in data set [4], more than 40000 nM; in data set [6], 1600 nM; in data set [1], 460 nM. Moreover, the log distribution coefficient (logD) in “physchem [7]” stood at 3.
Regarding `Cc1[nH]nc2[nH]c(=O)c(C#N)c(C3CCCCC3)c12`, the half-inhibitory concentration (IC50) is 20000 nM in data set [2]; 17000 nM in data set [3]; more than 40000 nM in data set [4]; 5400 nM in data set [6]; 2100 nM in data set [1]; 11000 nM in data set [8].
For the molecule `Cc1[nH]nc2[nH]c(=O)cc([C@H]3CC[C@H](NS(=O)(=O)C4CC4)CC3)c12`, the IC50 in data set [3] came to 2500 nM; in data set [6], 6600 nM; in data set [1], 400 nM.
`O=c1cc(C2CCCCC2)c2c(C3CC3)[nH]nc2[nH]1`: the IC50 in data set [2] was 1800 nM; in data set [3] it was 1300 nM; in data set [4] it was more than 40000 nM; in data set [6] it was 980 nM; in data set [1] it was 500 nM; in data set [8], 1600 nM. The molecule further had a logD in “physchem [7]” of 3.1.
As for `O=c1cc(C2CCCCC2)c2c[nH]nc2[nH]1`, the IC50 in data set [2] was more than 50000 nM; in data set [3], 35000 nM; in data set [6], 12000 nM; in data set [1] it was 15000 nM; in data set [8], 24000 nM.

The values are drawn from ChEMBL document CHEMBL4610114, “Fragment-Based Discovery of Pyrazolopyridones as JAK1 Inhibitors with Excellent Subtype Selectivity” (J Med Chem, 2020).
